Experimental data from US9974869B2, “Chelated PSMA inhibitors” (Cancer Targeted Technology LLC, priority 2011, dated 2018).

Experiments:
PSMA = PSMA (Homo sapiens, UniProt Q04609); experiment: PSMA inhibition (IC50, mode of inhibition); assay type: biochemical
[1] = Acid and base stability noted in preliminary labeling and deprotection studies; assay type: physicochemical; settings: serine-based scaffold; beta-elimination under base, P—N bond labile to acid
From the text: The instability of CTT54 and its protected precursors under basic conditions is due to beta-elimination on serine to yield a dehydroalanine derivative. The acid instability was centered on the P—N bond of CTT54, which precluded the use of acid modifiers in HPLC mobile phases. […] The homoserine analog was known initially as hCTT54 and later, more formally, as CTT1000. The 2(3-hydroxypropyl)glycine is known as TG97 and CTT2000. The base stability was expected as the beta-elimination problem associated with phosphorylated serine residue would be blocked. However, the acid stability was unexpected.

tumor = experiment: Uptake over time in the fraction associated with the tumor; settings: in vivo
From the text: Following administration of the chelated PSMA inhibitors herein, the imaging time may be altered to alter and/or optimize imaging characteristics.

Chain of PSMA (Q04609 whole entry): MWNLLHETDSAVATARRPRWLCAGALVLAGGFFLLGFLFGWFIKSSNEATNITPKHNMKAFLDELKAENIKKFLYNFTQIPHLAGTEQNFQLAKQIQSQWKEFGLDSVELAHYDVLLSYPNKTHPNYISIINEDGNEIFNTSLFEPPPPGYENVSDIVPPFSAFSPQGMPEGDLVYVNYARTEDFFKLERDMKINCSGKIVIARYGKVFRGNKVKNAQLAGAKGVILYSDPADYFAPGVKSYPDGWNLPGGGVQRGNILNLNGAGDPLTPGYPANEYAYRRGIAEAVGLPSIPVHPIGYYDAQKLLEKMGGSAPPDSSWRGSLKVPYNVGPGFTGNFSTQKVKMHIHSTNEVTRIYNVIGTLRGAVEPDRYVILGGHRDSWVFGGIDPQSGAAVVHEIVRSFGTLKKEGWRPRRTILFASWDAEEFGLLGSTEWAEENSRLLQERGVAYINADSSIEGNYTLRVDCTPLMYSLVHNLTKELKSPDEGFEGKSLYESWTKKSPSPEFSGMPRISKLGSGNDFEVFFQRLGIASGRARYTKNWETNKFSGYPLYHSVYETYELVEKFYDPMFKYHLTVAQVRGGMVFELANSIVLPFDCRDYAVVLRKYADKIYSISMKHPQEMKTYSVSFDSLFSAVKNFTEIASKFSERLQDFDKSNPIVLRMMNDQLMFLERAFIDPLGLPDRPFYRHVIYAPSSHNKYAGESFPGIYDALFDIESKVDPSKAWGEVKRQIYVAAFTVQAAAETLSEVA

| Structure (SMILES) | IC50 (PSMA) [µM] | acid and base stability [1] | uptake in the fraction associated with the tumor over time (tumor) |
| --- | --- | --- | --- |
| N[C@@H](CCC(=O)N[C@@H](CCOP(=O)(O)N[C@@H](CCC(=O)O)C(=O)O)C(=O)O)C(=O)O [CTT1000] | 0.015 |  |  |
| N[C@@H](CCC(=O)N[C@@H](COP(=O)(O)N[C@@H](CCC(=O)O)C(=O)O)C(=O)O)C(=O)O [CTT-54, L-[…]- glutamyl-O-[{[(1S)-1,3-dicarboxy-propyl]amino} (hydroxy)phosphoryl]-L-serine] |  | acid and base stability issues were noted | continues to increase over time |
